Data on 41 compounds can be found in the Deep4Chem optical property database.

This data set in a line: solvent given as SMILES.

For the setting “in C1CCOC1”, `CCCCCCCCCCCCn1c(-c2cc(-c3nc4ccc(C)cc4n3CCCCCCCCCCCC)cc(-c3nc4ccc(C)cc4n3CCCCCCCCCCCC)c2)nc2ccc(C)cc21` came in with an emission maximum of 375.8 nm.

On to `COc1ccc(-c2c3nc(cc4ccc([nH]4)c(-c4ccc(OC)c(OCCCC(=O)O)c4)c4nc(cc5ccc2[nH]5)CC4)CC3)cc1OCCCC(=O)O`, for which the emission maximum (in CS(C)=O) came out at 738 nm.

In the case of `FC(F)(F)c1ccc2oc3nc4oc5ccc(N6c7ccccc7Oc7ccccc76)cc5c4cc3c2c1`, the emission maximum (in ClC(Cl)Cl) was found to be 489 nm.

In turn, `Brc1ccc(-c2nc3sc4ccccc4c3s2)cc1` returned an emission maximum (in CS(C)=O) of 420 nm.

Compound `Cc1ccc2nc3c4c(c5ccccc5c3nc2c1)OC(=O)CC4c1ccc(F)cc1` (stereo not given) gave an emission maximum (in ClC(Cl)Cl) of 431 nm.

Compound `N#Cc1cnc(-c2c3ccccc3cc3ccccc23)nc1` yielded an emission maximum (in CCO) of 510 nm and an emission maximum (in ClCCl) of 492 nm.

In turn, `Nc1ccc2c(-c3ccc(C(=O)CN4C(=O)CCC4=O)cc3C(=O)[O-])c3ccc(=[NH2+])c(S(=O)(=O)[O-])c-3oc2c1S(=O)(=O)[O-]` displayed an emission maximum (in O) of 519 nm.

Where the note is “in CCCCCC”, `F[B-]1(F)n2c(ccc2-c2ccccc2)C(C(F)(F)F)=C2C=CC(c3ccccc3)=[N+]21` gave an emission maximum of 622 nm.

For the compound `O=c1c2cccc3cccc(c32)c2nc3ccccc3n12`, under “in ClCCl”, the emission maximum worked out at 499 nm.

For the compound `CN(C)c1cc2c(cc1F)c(=O)c1cc(F)c(N)cc1n2C`, the emission maximum (in CCO) is 432 nm.

Where the note is “in C1CCOC1”, `Cc1ccsc1-c1cc2c3cc(-c4sccc4C)c4nc(C(F)(F)C(F)(F)C(F)(F)F)nc5c(-c6sccc6C)cc(c6cc(-c7sccc7C)c7nc(C(F)(F)C(F)(F)C(F)(F)F)nc1c7c26)c3c45` displayed an emission maximum of 627 nm.

In the case of `CC(C)(C)c1cc(-c2ccc(-c3cccs3)s2)c2c(c1)c1cc(C(C)(C)C)cc(-c3ccc(-c4cccs4)s3)c1n2-c1ccc(-c2cccs2)s1`, the emission maximum (in ClCCl) was 434 nm.

As to `CC1=CC(c2ccc(N(C)C)cc2)=[N+]2C1=Nc1c(C)cc(-c3ccc(N(C)C)cc3)n1[B-]2(F)F`, the emission maximum reads like this: (in C1CCOC1) 791 nm; (in CS(C)=O) 822 nm; (in Cc1ccccc1) 779 nm.

Turning to `CC1CCC(O)(c2ccc(-c3cccs3)s2)CC1` (stereo not given), the emission maximum by setting is: (in C1CCOC1) 412 nm; (in CC#N) 405 nm; (in CCCCCC) 408 nm; (in CCO) 406 nm; (in OCCOCCO) 414 nm; (in c1ccncc1) 416 nm.

Where the note is “in CO”, `COc1ccc(-c2ccc3c(c2)nnn3C[C@H](N)C(=O)O)cc1` registered an emission maximum of 418 nm.

The compound `C(=C\c1cc[n+](Cc2ccccc2)cc1)/c1cc[n+](Cc2ccccc2)cc1` yielded an emission maximum (in CC#N) of 426 nm.

Under “in C1CCOC1”, `COc1ccccc1C1=[N+]2C(=Cc3c4cc5ccccc5cc4c(-c4ccccc4OC)n3[B-]2(F)F)c2cc3ccccc3cc21` had an emission maximum of 760 nm.

In turn, `CC(C)Nc1cc2sc3cc(NC(C)C)c(F)cc3c(=O)c2cc1F` yielded an emission maximum (in CCO) of 446 nm.

In turn, `c1ccc(-p2c(-c3cccs3)cc3ccccc32)cc1` (stereo not given) displayed an emission maximum (in C1CCOC1) of 417 nm.

Consider `CN(C)c1ccc(C#Cc2ccc(C#N)cc2)cc1`, for which the emission maximum (in C1CCCCC1) is reported as 383 nm; the emission maximum (in C1CCOC1) was 505 nm; the emission maximum (in C1COCCO1) came to 446.01 nm; the emission maximum (in CC1CCCO1) was 468.01 nm; the emission maximum (in CC#N) worked out at 571 nm; the emission maximum (in CC(C)=O) is 543.01 nm. In addition, the emission maximum by setting is: (in CC(C)CC(C)(C)C) 380 nm; (in CC(C)O) 510 nm; (in CCCCCCCCCCCCCCCC) 385 nm; (in CCCCCCCCCCCCCCCCCl) 423.6 nm; (in CCOC(C)=O) 482 nm; (in CCOCC) 453 nm. In addition, the emission maximum by setting is: (in CN(C)C=O) 566 nm; (in CO) 547.02 nm; (in CS(C)=O) 573 nm; (in Cc1ccccc1) 427 nm.

Where the note is “in c1cc(-c2cccc(-n3c4ccccc4c4ccccc43)c2)cc(-n2c3ccccc3c3ccccc32)c1”, `c1ccc(-c2nc(-c3ccccc3)nc(-c3ccc(-c4ccc5c(c4)C4(c6ccccc6-c6ccccc64)c4cc(-c6ccc(-c7nc(-c8ccccc8)nc(-c8ccccc8)n7)cc6)ccc4N5c4ccccc4)cc3)n2)cc1` showed an emission maximum of 469 nm.

As to `CC(C)(C)c1ccc(-c2nc3c4ccc(-c5cccc6ccccc56)cc4c4cc(-c5cccc6ccccc56)ccc4c3n2-c2ccc(C(C)(C)C)cc2)cc1`, the emission maximum by setting is: (in C1CCOC1) 386 nm; (in C1COCCO1) 385 nm; (in CC#N) 391 nm; (in CCCCCC) 381 nm; (in CCCCOCCCC) 383 nm; (in CCN(CC)CC) 382 nm. Moreover, the emission maximum by setting is: (in CCOC(C)=O) 385 nm; (in CCOCC) 382 nm; (in CN(C)C=O) 394 nm; (in Cc1ccccc1) 385 nm; (in ClC=C(Cl)Cl) 386 nm; (in ClCCl) 388 nm.

As to `O=C1c2ccc(-c3ccc(N(c4ccccc4)c4ccccc4)cc3)cc2C(=O)c2ccc(-c3ccc(N(c4ccccc4)c4ccccc4)cc3)cc21`, the emission maximum (in Cc1ccccc1) is 597 nm and the emission maximum (in c1ccc2c(c1)c1ccccc1n2-c1ccc(-c2ccc(-n3c4ccccc4c4ccccc43)cc2)cc1) turned out to be 594 nm.

`CCCCN1c2ccc(/C=C/c3cc(=O)oc4cc(C)ccc34)cc2Sc2cc(/C=C/c3cc(=O)oc4cc(C)ccc34)ccc21` registered an emission maximum (in ClC(Cl)Cl) of 620 nm.

`O=C1CC(=O)Nc2cc(Cl)ccc2N1`: the emission maximum (in CS(C)=O) amounted to 336 nm.

Regarding `c1cnc(-c2c3ccccc3c(-c3cncnc3)c3ccccc23)nc1`, the emission maximum runs as follows: (in CCO) 433 nm; (in ClCCl) 436 nm.

For the compound `CN(C)c1ccc(/C=C/c2nc3ccccc3s2)cc1`, the emission maximum was 447 nm (in C1CCCCC1); 482 nm (in C1CCOC1); 467 nm (in C1COCCO1); 504 nm (in CC#N); 493 nm (in CC(C)O); 445 nm (in CCCCCC). This compound displayed an emission maximum (in CCCCCCC) of 446 nm; an emission maximum (in CCO) of 498 nm; an emission maximum (in CCOC(C)=O) of 477 nm; an emission maximum (in CCOCC) of 460 nm; an emission maximum (in CN(C)C=O) of 504 nm; an emission maximum (in CO) of 507 nm. The emission maximum reads like this: (in CS(C)=O) 513 nm; (in O) 516 nm; (in OCC(O)CO) 530 nm.

As for `CC1=CC(C)=[N+]2C1=Cc1c3ccccc3c(C#Cc3ccc(F)cc3)n1[B-]2(F)F`, the emission maximum (in CCCCCC) worked out at 615 nm, the emission maximum (in CCCCCCCCO) turned out to be 623 nm, the emission maximum (in CCOC(C)=O) came out at 617 nm and the emission maximum (in CN(C)C=O) was 624 nm.

With `COC(=O)c1cccc2c1C#Cc1c(N)cccc1OCCCO2`, the emission maximum is 487 nm (in CC#N) and 453 nm (in ClCCl).

In turn, `CC1(C)c2ccccc2N(c2ccccc2)c2ccc(-c3ccc(S(=O)(=O)c4ccc(-c5ccc6c(c5)C(C)(C)c5ccccc5N6c5ccccc5)cc4)cc3)cc21` had an emission maximum (in Cc1ccccc1) of 419.03 nm and an emission maximum (in O=P(c1ccccc1)(c1ccccc1)c1ccccc1Oc1ccccc1P(=O)(c1ccccc1)c1ccccc1) of 439 nm.

`CC(C)c1ccc(-c2nc(-c3ccccc3)c3ccccn23)cc1` registered an emission maximum (in CC#N) of 478 nm.

In the case of `CC1(C)C2=C3C=C4C5=[N+](CCC4OC3CCN2c2ccc(CC(=O)NCCCCCCO)cc21)c1ccc(S(=O)(=O)[O-])cc1C5(C)C` (stereo not given), where the note is “in O”, the emission maximum stood at 572 nm.

Consider `O=C1c2ccccc2-c2ccc(N3CCOCC3)c3cccc1c23`, for which the emission maximum reads like this: (in C1CCOC1) 600 nm; (in CCCCCC) 529 nm; (in CCO) 640 nm; (in CCOC(C)=O) 600 nm; (in CN(C)C=O) 622 nm; (in CO) 661 nm. Also, the emission maximum reads like this: (in Cc1ccccc1) 568 nm; (in ClC(Cl)(Cl)Cl) 552 nm; (in ClC(Cl)Cl) 625 nm; (in ClCCl) 625 nm; (in c1ccccc1) 562 nm.

Turning to `CC1=[N+]2C(=C(c3ccccc3)c3c4ccccc4c(C)n3[B-]2(F)F)c2ccccc21`, where the note is “in CC#N”, the emission maximum turned out to be 606 nm.

As to `C=CCNc1ccc2ccc3oc4cc(=[N+]5CCCC5)ccc-4nc3c2c1`, the emission maximum reads like this: (in CC#N) 635 nm; (in CCO) 632 nm; (in ClCCl) 622 nm; (in O) 650 nm.

With `Cc1ccc(C(=O)NN2C3=C(CC4=C2CCCC4=O)C(=O)CCC3)cc1`, the emission maximum is 435 nm (in C1CCOC1); 343 nm (in CC#N); 368 nm (in CC(C)=O); 445 nm (in CCCCCO); 447 nm (in CO); 438 nm (in ClC(Cl)Cl). The emission maximum (in ClCCl) worked out at 435 nm.

With `Cc1ccc2c(c1)C1(c3ccccc3-c3ccccc31)c1cc(C)ccc1N2c1ccc2c(c1)Oc1ccccc1P2(=S)c1ccccc1` (stereo not given), the emission maximum (in Cc1ccccc1) amounted to 443.09 nm.

In turn, `CC(C)(C)NC1=CC2=c3cc(NC(C)(C)C)c4nc(C(F)(F)C(F)(F)C(F)(F)F)nc5c(NC(C)(C)C)cc(c3c54)C3=CC(NC(C)(C)C)=C4N=C(C(F)(F)C(F)(F)C(F)(F)F)N=C1C4C32` (stereo not given) yielded an emission maximum (in C1CCOC1) of 666 nm.

For `CC1(C)C(/C=C/C=C/C=C/C=C2/N(CCCCS(=O)(=O)[O-])c3ccc4ccccc4c3C2(C)C)=[N+](CCCCS(=O)(=O)[O-])c2ccc3ccccc3c21`, the emission maximum (in CO) is recorded as 817 nm.

`CC[n+]1c(-c2ccccc2)c2cc(NC(N)=O)ccc2c2ccc(NC(N)=O)cc21` had an emission maximum (in O) of 520 nm.

With `N#Cc1cc2ccc(cc2)c2cccc3cccc(c4ccc(cc4)cc(C#N)c4ccc(cc4)c4cccc5cccc(c6ccc1cc6)c54)c32`, the emission maximum (in Cc1ccccc1) is 496 nm.
